Measurements from patent US20230117680A1, “CYCLOPHILIN D INHIBITORS AND USES THEREOF” (The Broad Institute, Inc., priority 2019, published 2023).
“Also recorded” adds a separate entry of the source.

What was measured:
CypD = CypD (Homo sapiens, UniProt P30405); experiment: chymotrypsin coupled PPIase assay (Suc-AAPF-AMC substrate), CypD inhibition; format: biochemical
From the text: (§1) The selectivity of a compound described herein in inhibiting the activity of a first cyclophilin (e.g., CypD) over a second cyclophilin may be measured by the quotient of the IC50 value of the compound in inhibiting the activity of the second cyclophilin over the IC50 value of the compound in inhibiting the activity of the first cyclophilin. The selectivity of a compound described herein in modulating the activity of a first cyclophilin over a second cyclophilin may also be measured by the quotient of the Kd value of an adduct of the compound and the second cyclophilin over the Kd value of an adduct of the compound and the first cyclophilin (e.g., CypD). […] In certain embodiments, selectivity for inhibiting a first cyclophilin over other cyclophilins is measured by Surface Plasmon Resonance (SPR) assays as disclosed in the Examples.
(§2) Following the synthesis of the indicated library members, in vitro inhibition (IC50) assays of these hits were conducted to obtain IC50 inhibitory data. For the IC50 assays, a chymotrypsin coupled PPIase assay using Suc-AAPF-AMC as the peptide substrate was used, whereby isomerization of a peptide substrate Suc-AAPF-AMC from the cis to trans conformation allowed for proteolysis via excess a-chymotrypsin, releasing the C-terminal coumarin fluorophore.

[1] = tested on: 10 other cyclophilins with reported prolyl isomerase activity; experiment: cyclophilin specificity screen: CypD against the other cyclophilins; format: biochemical; conditions: result in words
From the text: as §1, §2
Subsequently, to determine if the compounds could both access the S2 pocket and display CypD specificity, JOMBtrans and compound 49 were screened against the 10 other cyclophilins with reported prolyl isomerase activity. […] Co-crystal structures of JOMBtrans and 49 were solved with CypD.

[2] = tested on: mPTP in isolated mice kidney mitochondria; experiment: inhibition of mPTP in isolated mitochondria (tolerated Ca2+ pulses before full mPTP opening); conditions: result in words
Description: In isolated mice kidney mitochondria, the maximum number of Ca^2+ pulses that could be tolerated before full mPTP opening was measured (see FIG. 24).

mPTP = experiment: inhibition of mPTP in in vitro cell culture; format: cell-based; conditions: result in words
Description: As disclosed herein, macrocycle inhibitors of cyclophilin D have been discovered and designed with previously unparalleled specificity. An active site binder displaying weak inhibition (IC50=15 uM) and no selectivity profile was initially optimized to 200 nM. CypD specificity was designed by building into S2 pocket residues. Bi-phenyl para-carboxylates provided the greatest level of potency (<2-30 nM) and selectivity for CypD. Co-crystal structures of these macrocycles bound to CypD were solved, and a dual binding mode was determined between active site and S2 pocket. MD simulations of co-crystal structures were conducted to observe dynamic interactions of carboxylate with S2 pocket. Initial proof of target engagement was determined via inhibition of the mPTP.

Sequence of CypD (P30405 30-207): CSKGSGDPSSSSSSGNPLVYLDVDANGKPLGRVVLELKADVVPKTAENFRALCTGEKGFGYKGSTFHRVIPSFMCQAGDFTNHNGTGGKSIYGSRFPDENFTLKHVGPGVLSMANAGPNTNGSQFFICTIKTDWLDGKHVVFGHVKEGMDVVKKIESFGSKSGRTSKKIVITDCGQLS

Row | SMILES | IC50 (CypD; read-out: potency for CypD) | potency for CypD (in words) (CypD; result in words) | specificity / selectivity profile for CypD (in words) [1] | number of tolerated Ca2+ pulses before full mPTP opening [2] | rescue of mPTP in cell culture (mPTP)
1 | NCCOCCNC(=O)[C@@H]1CCNC(=O)/C=C/C(=O)N2CCC[C@](Cc3ccccc3)(C2)C(=O)N[C@@H](Cc2ccc(-c3ccc(CCC(=O)O)cc3)cc2)C(=O)NCc2ccccc2CC(=O)N1 [A-81] | 2.5 nM | high potency | high specificity; also recorded: drastic preference for inhibition of CypD | extend Ca^2+ loading | appears to not rescue mPTP
2 | CC(=O)c1ccc(-c2ccc(C[C@@H]3NC(=O)[C@]4(Cc5ccccc5)CCCN(C4)C(=O)/C=C/C(=O)NCC[C@@H](C(=O)NCCOCCN)NC(=O)Cc4ccccc4CNC3=O)cc2)cc1 [A-22] |  |  |  | extend Ca^2+ loading | minimal rescue
